“Also recorded” adds a separate entry of the source. Some results are limits rather than exact numbers.

Holding throughout (type): in vivo
The test system of assay [1] is hSOD1^G93A mice. The assay is described as follows: Hind limb grip strength test in hSOD1^G93A mice on triheptanoin diet. On the procedure:
(§1) All experiments were approved by the University of Queensland's Animal Ethics Committee and followed the guidelines of the Queensland Animal Care and Protection Act 2001. All efforts were made to minimize the suffering and the number of animals used. Wild-type and hSOD1^G93A mice (B6.Cg-Tg(SOD1*G93A)1 Gur/J, stock no. 004435, Jackson laboratory, Maine, USA), were generated by mating hSOD1^G93A males with C57B/L6 wild-type females (University of Queensland). Mice were housed in a 12 hour light, 12 hour dark cycle, and had free access to food and water. Experimenters were blinded to animal genotype (until the mice started expressing the ALS phenotype) and dietary interventions.
(§2) Immediately after weaning, mice were placed on either a standard diet (SF11-027, Specialty Feeds, WA, AUS) or a matched diet (SF11-028, Specialty Feeds) in which 35% of the calories were from triheptanoin oil (Sasol, Germany). All diets were matched in protein, mineral, antioxidant and vitamin content relative to their caloric densities (Thomas et al., 2012). Triheptanoin replaced sucrose, some of the complex carbohydrates and long chain fats in the diet.
Animals underwent behavioral testing approximately 3-4 hours into the light cycle. All behavioral testing was conducted in an environment with minimal stimuli so as to minimize any possible effects caused by changes in external stimuli. Animals were weighed before every test session. Mice were observed, and disease progression tracked and graded according to a neurological score sheet to ensure that any non-ALS related deaths were excluded from the study. The neurological score was adapted from criteria developed at the ALS therapy development institute (Gill et al., 2009). In accordance with ethical requirements, hSOD1^G93A mice that became too weak to reach the food hoppers were provided with wet chow on the floor of the cages. The endpoint of the study was defined as the mouse being unable to right itself within 15 seconds after being placed on its back. Upon reaching end-stage or 25 weeks of age, transgenic mice and their respective wild-type littermates were euthanized with an overdose of pentobarbital (120 mg/kg, i.p., Provet, Australia). Tissues, including the m. gastrocnemius and tail, were collected for subsequent analysis. […]
(§3) Hind limb grip strength tests were conducted twice a week using a T-bar force transducer (Ugo Basile, Italy). […] The reading on the force transducer was taken only if both hind limbs released the bar at the same time. The average of 10 trials per mouse was recorded each training session. To compare time points of grip strength loss, the time point where a loss of more than 30% of the combined mean grip strength of week 9 to 13 was recorded, if the subsequent 3 measurements were ≦70% of the original average strength.

A further assay relates to wild-type mice. The assay is described as follows: Hind limb grip strength test in wild-type mice on triheptanoin diet. Conditions: triheptanoin n=15 vs control n=12. As for the experimental part:
as §1, with “interventions. […]” for “interventions.”
as §3

In assay [2] the test system is hSOD1^G93A mice. The assay can be described thus: Rotarod test, onset of balance loss.
Excerpt: as §2
(§4) Animals underwent behavioral testing approximately 3-4 hours into the light cycle. All behavioral testing was conducted in an environment with minimal stimuli so as to minimize any possible effects caused by changes in external stimuli. Animals were weighed before every test session. Mice were observed, and disease progression tracked and graded according to a neurological score sheet to ensure that any non-ALS related deaths were excluded from the study. The neurological score was adapted from criteria developed at the ALS therapy development institute (Gill et al., 2009). In accordance with ethical requirements, hSOD1^G93A mice that became too weak to reach the food hoppers were provided with wet chow on the floor of the cages. […]
The rotarod tests were conducted with 10 repeats once a week using a rotarod designed for mice (Ugo Basile, Italy). […] The time at which the animal fell off was recorded. […]
(In the rotarod test animals must keep their balance on a rotating rod.)

Assay [3] has as its system hSOD1^G93A mice. The assay can be described thus: Body weight and onset of body weight loss in hSOD1^G93A mice.
Excerpt: as §2
as §4, with “cages. The endpoint of the study was defined as the mouse being unable to right itself within 15 seconds after being placed on its back.” for “cages.”

The test system of assay [4] is hSOD1^G93A mice. The assay can be described thus: Survival, days taken to reach end-stage.
Excerpt: as §2
as §4, with “cages. The endpoint of the study was defined as the mouse being unable to right itself within 15 seconds after being placed on its back.” for “cages.”

Assay [5] concerns hSOD1^G93A mice. The assay is described as follows: Motor neuron counting (stereological, L2 to L5). Conditions: hSOD1^G93A mice at 70 days. On the procedure: Mice were fed with control or triheptanoin diet from 35 days until 70 days of age, when mice were anesthetized with pentobarbital (100 mg/kg i.p.), perfused with 0.9% saline followed by 4% paraformaldehyde. Spinal cords were removed and further fixed in 4% paraformaldehyde and subsequently embedded in OCT compound and serial sections of 16 μm were cut from lumbar vertebrae. Sections were washed in cold PBS and stained with 0.1% thionin in acetate buffer (pH3.4). The motor neurons were counted using stereological method as previously described (Banks et al., 2001; 2003; Forgarty et al., 2013). Briefly, motor neurons in the lateral motor column (LMC) from one side of the spinal cord were counted and only neurons that are large in size with darkly stained cytoplasm, pale nucleus and darkly stained nucleoli were counted (Clarke and Oppenheim, 1995). Every 10th section from lumbar 2 to lumbar 5 regions was counted to get the total motor neuron count which was then divided by the number of sections counted and multiplied by the total number of sections containing the LMC.

Assay [6] deals with Pdha1, Ogdh, Sdha and Mut mRNA in gastrocnemius muscle of hSOD1^G93A mice. The assay is described as follows: Quantitative real time PCR of metabolic genes in gastrocnemius muscle. Conditions: 10 week old hSOD1^G93A mice, triheptanoin feeding. The text has this: After euthanasia, the gastrocnemius muscle was quickly removed and frozen in liquid nitrogen. To extract RNA, muscle samples were pulverized in liquid nitrogen with a cold mortar and pestle, dissolved with TRI reagent (Life Technologies, CA, USA) and extracted according to the manufacturer's instructions. Contaminating DNA was removed by DNase I treatment and cDNA was synthesized using the Tetro cDNA synthesis kit (Bioline, London, UK) according to the manufacturer's instructions.
Expression of several metabolic genes was assayed (Gapdh, Pdha1, Ogdh, Sdha, Pcx, Gpt1, Gpt2, Pcca, Pccb and Mut) by quantitative real time PCR. All primers pairs (Table 1) were evaluated for efficiency using a 4 fold serial dilution series of muscle cDNA. The derived slope of each primer pair was used to calculate the efficiency by applying the formula, […]. Reactions consisted with diluted cDNA, 5 μl of SYBR Green Mastermix and 8 μM of forward and reverse primers each, and were amplified after an initial hot start. Conditions for cycling and the melt curve were identical to those described for quantitative genotyping. Samples without reverse transcriptase treatment were assayed to ensure that samples were free from DNA contamination. The fold expression (ΔCT) of the gene of interest (goi) relative to the geometric mean of housekeeping genes (Tbp, B2m and Hmbs) were calculated with a formula adapted from (Vandesompele et al., 2002) taking into consideration the individual efficiencies (E) of each primer pair.
A general note: Quantitative PCR measures a nucleic acid by following its amplification.

Consider `CCCCCCC(=O)OCC(COC(=O)CCCCCC)OC(=O)CCCCCC` [triheptanoin, 1,3-di(heptanoyloxy)propan-2-yl heptanoate], for which the “hind limb grip strength (upper limit over time)” value in the assay on hSOD1^G93A mice [1] (hSOD1^G93A mice on both diets) is on record as ≤ 400 mN. Further, the “onset of hind limb grip strength loss delayed by” value in the assay on hSOD1^G93A mice [1] (high copy number (19-24) hSOD1^G93A mice, diet with 35% of calories from triheptanoin vs control diet (n=8 vs n=5)) was 2.8 weeks. Further, the “hind limb grip strength at 18 and 19.5 weeks of age vs control diet” value in the assay on hSOD1^G93A mice [1] (high copy number hSOD1^G93A mice, Bonferroni post-hoc p<0.05) is recorded as “higher hind limb grip strength; also recorded: significantly higher grip strength”. Besides, the “area under the curve for grip strength over time, increase relative to control diet” value with hSOD1^G93A mice [1] (high copy number hSOD1^G93A mice, triheptanoin diet vs control diet, p=0.024) turned out to be 38%. In the assay on wild-type mice, the “difference in mean hind limb grip strength vs control diet” value is reported as “no observable difference”. Also, the “time of onset of loss of balance delayed by” value in the assay on hSOD1^G93A mice [2] (hSOD1^G93A mice, triheptanoin vs control diet, p=0.0016) was 1.6 weeks. For the same compound, the “onset of balance loss on the rota-rod delayed by” value in the assay on hSOD1^G93A mice [2] (triheptanoin fed vs control fed SOD1^G93A mice, p=0.0016 (FIG. 3F legend)) was determined as 13 days. Further, the “onset of body weight loss delayed by” value in the assay on hSOD1^G93A mice [3] (hSOD1^G93A mice, triheptanoin feeding vs control, p=0.007) was 1.6 weeks. For the same compound, the “onset of body weight loss delayed by” value in the assay with hSOD1^G93A mice [3] (triheptanoin fed (n=8) vs control fed (n=5) SOD1^G93A mice, p=0.0076 (FIG. 3H legend)) turned out to be 11 days. Besides, in the assay with hSOD1^G93A mice [4] (small study), the effect on survival result is “did not alter survival”. Also, the “number of days taken to reach end-stage” value in the assay with hSOD1^G93A mice [4] (triheptanoin n=7, mean±SEM, p=0.653 vs control) came out at 174.9 ± 3.5 days. The “loss of motor neurons between L2 and L5 vs wild type” value in the assay on hSOD1^G93A mice [5] (triheptanoin diet from 35 days (n=4), control diet 37% loss) came to 21%. The “motor neuron numbers compared with wild type mice” value with hSOD1^G93A mice [5] (triheptanoin fed, n=4) was “not significantly different from wild type mice”. Moreover, in assay [6], the “protection from reduced expression of 2-oxo-glutarate dehydrogenase (Ogdh) mRNA” value is recorded as “not”, the “protection from reduced expression of methylmalonyl mutase (Mut) mRNA” value is listed as “not”, the “protection from reduced expression of pyruvate dehydrogenase (Pdha1) mRNA” value is on record as “protected” and the “protection from reduced expression of succinate dehydrogenase (Sdha) mRNA” value is listed as “protected”.

The values above are taken from patent US9833430B2, “Neurodegenerative disorders and methods of treatment and diagnosis thereof” (The University of Queensland, priority 2013, dated 2017).
